Laboratory results published in the supplement of paper PMC10331698.
± gives the standard deviation of the averaged measurements.

Tests used:
Experiment in all cases: level (log10 ratio to DMSO vehicle control); higher = higher biomarker level / cell amount than vehicle control
[1] = compound: C[C@@H]1C[C@H]2[C@@H]3CCC4=CC(=O)C=C[C@]4(C)[C@@]3(F)[C@@H](O)C[C@]2(C)[C@@]1(O)C(=O)COP(=O)(O)O [Dexamethasone sodium phosphate] (in DMSO)
Protocol: (§1)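 BioMAP Diversity Plus panel of 12 human primary cell co-culture systems (3C, 4H, LPS, SAg, BT, BF4T, BE3C, CASM3C, HDF3CGF, KF3CT, MyoF, Mphg). Compounds were added 1 h before stimulation and left for 24 h (MyoF 48 h; BT 72 h for soluble read-outs or 6 d for IgG). Biomarkers were read by ELISA, cytotoxicity by SRB, PBMC viability and proliferation by Alamar Blue. Each well value was divided by the mean of 8 DMSO control wells on the same plate and log10 transformed; duplicate blinded samples were tested at 4 concentrations.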

[2] = compound: CO[Si](C)(CCC(F)(F)C(F)(F)C(F)(F)C(F)(F)C(F)(F)C(F)(F)F)OC [Dimethoxymethyl((perfluorohexyl)ethyl)silane] (in DMSO)
Protocol: as §1

[3] = compound: NS(=O)(=O)C(F)(F)C(F)(F)C(F)(F)C(F)(F)C(F)(F)C(F)(F)C(F)(F)C(F)(F)F [Perfluorooctanesulfonamide] (in DMSO)
Protocol: as §1

[4] = compound: CN(C(=O)C(F)(F)C(F)(F)C(F)(F)F)[Si](C)(C)C [N-Methyl-N-trimethylsilylheptafluorobutyramide] (in DMSO)
Protocol: as §1

Perfluoroundecanoic acid = compound: O=C(O)C(F)(F)C(F)(F)C(F)(F)C(F)(F)C(F)(F)C(F)(F)C(F)(F)C(F)(F)C(F)(F)C(F)(F)F [Perfluoroundecanoic acid] (in DMSO); settings: 6700 nM
Protocol: as §1

[5] = compound: O=C(O)C(F)(F)OC(F)(F)C(F)(F)OC(F)(F)C(F)(F)OC(F)(F)C(F)(F)C(F)(F)C(F)(F)F [Perfluoro-3,6,9-trioxatridecanoic acid] (in DMSO); settings: 6700 nM
Protocol: as §1

[6] = compound: O=S(=O)(O)C(F)(F)C(F)(F)C(F)(F)C(F)(F)C(F)(F)C(F)(F)C(F)(F)F [Perfluoroheptanesulfonic acid] (in DMSO)
Protocol: as §1

[7] = compound: C=C(C)C(=O)OCCC(F)(F)C(F)(F)C(F)(F)C(F)(F)C(F)(F)C(F)(F)C(F)(F)C(F)(F)F [8:2 Fluorotelomer methacrylate] (in DMSO)
Protocol: as §1

## KF3CT:MMP-9
[1]; 1500 nM
  level (log10): -0.0065 ± 0.00071
[1]; 4400 nM
  level (log10): -0.002
[1]; 13000 nM
  level (log10): -0.023 ± 0.014
[1]; 40000 nM
  level (log10): -0.0175 ± 0.013
[2]; 6700 nM
  level (log10): -0.008 ± 0.0014
[2]; 20000 nM
  level (log10): -0.0065 ± 0.016
[3]; 6700 nM
  level (log10): 0.0365 ± 0.026
[3]; 20000 nM
  level (log10): -0.274 ± 0.023
[4]; 6700 nM
  level (log10): -0.0235 ± 0.005
[4]; 20000 nM
  level (log10): -0.0115 ± 0.033
[4]; 60000 nM
  level (log10): 0.0055 ± 0.00071
Perfluoroundecanoic acid
  level (log10): -0.172 ± 0.027
[5]
  level (log10): -0.278 ± 0.039
[6]; 1500 nM
  level (log10): 0.0045 ± 0.025
[6]; 4400 nM
  level (log10): -0.002 ± 0.0042
[6]; 13000 nM
  level (log10): -0.01 ± 0.0042
[6]; 40000 nM
  level (log10): 0.0345 ± 0.013
[7]; 6700 nM
  level (log10): -0.003 ± 0.023
[7]; 20000 nM
  level (log10): -0.014 ± 0.018

## lMphg:CCL3/MIP-1alpha
[1]; 1500 nM
  level (log10): -0.139 ± 0.016
[1]; 4400 nM
  level (log10): -0.173 ± 0.043
[1]; 13000 nM
  level (log10): -0.254 ± 0.06
[1]; 40000 nM
  level (log10): -0.209 ± 0.055
[2]; 6700 nM
  level (log10): -0.012 ± 0.0099
[2]; 20000 nM
  level (log10): 0.0065 ± 0.023
[3]; 6700 nM
  level (log10): -0.003 ± 0.016
[3]; 20000 nM
  level (log10): 0.023 ± 0.0099
[4]; 6700 nM
  level (log10): -0.007 ± 0.0057
[4]; 20000 nM
  level (log10): -0.018 ± 0.011
[4]; 60000 nM
  level (log10): 0.0255 ± 0.032
Perfluoroundecanoic acid
  level (log10): -0.004 ± 0.023
[5]
  level (log10): -0.0245 ± 0.019
[6]; 1500 nM
  level (log10): -0.04 ± 0.0071
[6]; 4400 nM
  level (log10): -0.0135 ± 0.047
[6]; 13000 nM
  level (log10): -0.0225 ± 0.064
[6]; 40000 nM
  level (log10): -0.014 ± 0.037
[7]; 6700 nM
  level (log10): 0.0075 ± 0.039
[7]; 20000 nM
  level (log10): 0.028 ± 0.065

## lMphg:CD40
[1]; 1500 nM
  level (log10): -0.0185 ± 0.026
[1]; 4400 nM
  level (log10): -0.0375 ± 0.0092
[1]; 13000 nM
  level (log10): -0.038 ± 0.013
[1]; 40000 nM
  level (log10): -0.103 ± 0.04
[2]; 6700 nM
  level (log10): -0.006 ± 0.0014
[2]; 20000 nM
  level (log10): -0.012 ± 0.013
[3]; 6700 nM
  level (log10): -0.0365 ± 0.016
[3]; 20000 nM
  level (log10): -0.0925 ± 0.0092
[4]; 6700 nM
  level (log10): -0.008 ± 0.027
[4]; 20000 nM
  level (log10): -0.016
[4]; 60000 nM
  level (log10): -0.0145 ± 0.022
Perfluoroundecanoic acid
  level (log10): -0.008 ± 0.018
[5]
  level (log10): -0.0205 ± 0.013
[6]; 1500 nM
  level (log10): -0.034 ± 0.021
[6]; 4400 nM
  level (log10): -0.007 ± 0.034
[6]; 13000 nM
  level (log10): -0.0285 ± 0.043
[6]; 40000 nM
  level (log10): -0.0525 ± 0.028
[7]; 6700 nM
  level (log10): -0.0215 ± 0.029
[7]; 20000 nM
  level (log10): -0.05 ± 0.052

## lMphg:CD62E/E-Selectin
[1]; 1500 nM
  level (log10): -0.147 ± 0.0028
[1]; 4400 nM
  level (log10): -0.212 ± 0.0042
[1]; 13000 nM
  level (log10): -0.239 ± 0.089
[1]; 40000 nM
  level (log10): -0.292 ± 0.061
[2]; 6700 nM
  level (log10): 0.019 ± 0.0099
[2]; 20000 nM
  level (log10): 0.0135 ± 0.033
[3]; 6700 nM
  level (log10): -0.118 ± 0.041
[3]; 20000 nM
  level (log10): -0.125 ± 0.0057
[4]; 6700 nM
  level (log10): -0.0115 ± 0.00071
[4]; 20000 nM
  level (log10): 0.0015 ± 0.0021
[4]; 60000 nM
  level (log10): 0.0065 ± 0.0021
Perfluoroundecanoic acid
  level (log10): -0.004 ± 0.041
[5]
  level (log10): -0.025 ± 0.061
[6]; 1500 nM
  level (log10): -0.029 ± 0.028
[6]; 4400 nM
  level (log10): -0.0015 ± 0.046
[6]; 13000 nM
  level (log10): -0.0135 ± 0.054
[6]; 40000 nM
  level (log10): 0.0415 ± 0.043
[7]; 6700 nM
  level (log10): 0.0085 ± 0.015
[7]; 20000 nM
  level (log10): 0.02 ± 0.014

## lMphg:SRB
[1]; 1500 nM
  level (log10): -0.0045 ± 0.0092
[1]; 4400 nM
  level (log10): -0.0125 ± 0.0078
[1]; 13000 nM
  level (log10): -0.006 ± 0.0014
[1]; 40000 nM
  level (log10): -0.0265 ± 0.0021
[2]; 6700 nM
  level (log10): -0.0025 ± 0.0092
[2]; 20000 nM
  level (log10): -0.0045 ± 0.00071
[3]; 6700 nM
  level (log10): -0.013
[3]; 20000 nM
  level (log10): -0.052 ± 0.0085
[4]; 6700 nM
  level (log10): -0.0015 ± 0.005
[4]; 20000 nM
  level (log10): 0 ± 0.0099
[4]; 60000 nM
  level (log10): 0.003 ± 0.0014
Perfluoroundecanoic acid
  level (log10): -0.001 ± 0.011
[5]
  level (log10): -0.014 ± 0.0085
[6]; 1500 nM
  level (log10): -0.01 ± 0.013
[6]; 4400 nM
  level (log10): -0.0055 ± 0.011
[6]; 13000 nM
  level (log10): 0.0015 ± 0.0035
[6]; 40000 nM
  level (log10): 0.003 ± 0.0057
[7]; 6700 nM
  level (log10): -0.0035 ± 0.0035
[7]; 20000 nM
  level (log10): -0.0055 ± 0.0064

## CASM3C:Proliferation
[1]; 1500 nM
  level (log10): 0.084 ± 0.025
[1]; 4400 nM
  level (log10): 0.033 ± 0.024
[1]; 13000 nM
  level (log10): 0.062 ± 0.025
[1]; 40000 nM
  level (log10): 0.059 ± 0.0042
[2]; 6700 nM
  level (log10): 0.0455 ± 0.0078
[2]; 20000 nM
  level (log10): 0.041 ± 0.061
[3]; 6700 nM
  level (log10): -0.027 ± 0.0085
[3]; 20000 nM
  level (log10): 0.0415 ± 0.032
[4]; 6700 nM
  level (log10): -0.017 ± 0.03
[4]; 20000 nM
  level (log10): -0.0095 ± 0.00071
[4]; 60000 nM
  level (log10): 0.039 ± 0.033
Perfluoroundecanoic acid
  level (log10): 0.0285 ± 0.011
[5]
  level (log10): -0.012 ± 0.016
[6]; 1500 nM
  level (log10): 0.0285 ± 0.0092
[6]; 4400 nM
  level (log10): -0.026
[6]; 13000 nM
  level (log10): -0.028 ± 0.016
[6]; 40000 nM
  level (log10): -0.034 ± 0.028
[7]; 6700 nM
  level (log10): -0.01 ± 0.017
[7]; 20000 nM
  level (log10): -0.0245 ± 0.035

## BE3C:SRB
[1]; 1500 nM
  level (log10): 0.0135 ± 0.013
[1]; 4400 nM
  level (log10): 0.003 ± 0.0014
[1]; 13000 nM
  level (log10): 0.002 ± 0.0014
[1]; 40000 nM
  level (log10): 0.0115 ± 0.0064
[2]; 6700 nM
  level (log10): -0.0035 ± 0.0035
[2]; 20000 nM
  level (log10): -0.003 ± 0.0042
[3]; 6700 nM
  level (log10): -0.0145 ± 0.0021
[3]; 20000 nM
  level (log10): -0.0315 ± 0.00071
[4]; 6700 nM
  level (log10): -0.006 ± 0.0057
[4]; 20000 nM
  level (log10): -0.003 ± 0.0028
[4]; 60000 nM
  level (log10): 0 ± 0.0028
Perfluoroundecanoic acid
  level (log10): -0.0555 ± 0.012
[5]
  level (log10): -0.231 ± 0.012
[6]; 1500 nM
  level (log10): 0.015 ± 0.014
[6]; 4400 nM
  level (log10): -0.005 ± 0.0099
[6]; 13000 nM
  level (log10): -0.0005 ± 0.0021
[6]; 40000 nM
  level (log10): -0.0055 ± 0.0064
[7]; 6700 nM
  level (log10): -0.003
[7]; 20000 nM
  level (log10): 0.0025 ± 0.005
